Reference: US7115629B2, “Carbamates derived from arylalkylamines” (Laboratorios S.A.L.V.A.T., S.A., priority 2000, dated 2006)

Key:
[1] = tested on: M2 and M3 receptors; details: background statement; compounds exhibit M3 antagonist activity; cited from earlier work
[2] = target: T1, human M3 receptors (Homo sapiens, UniProt P20309); test: Binding test to cloned human M3 muscarinic receptor ([3H]-NMS displacement, CHO-K1 membranes); details: membranes of CHO-K1 cells transfected with human M3; [3H]-NMS; mean of two independent experiments in duplicate; read-out: M3 (human M3 antagonist activity, binding affinity constant Ki)
T1 construct: purchased Receptor Biology; host or cells: CHO-K1 cells transfected with the human receptor (membranes)
T1 sequence (P20309 whole entry): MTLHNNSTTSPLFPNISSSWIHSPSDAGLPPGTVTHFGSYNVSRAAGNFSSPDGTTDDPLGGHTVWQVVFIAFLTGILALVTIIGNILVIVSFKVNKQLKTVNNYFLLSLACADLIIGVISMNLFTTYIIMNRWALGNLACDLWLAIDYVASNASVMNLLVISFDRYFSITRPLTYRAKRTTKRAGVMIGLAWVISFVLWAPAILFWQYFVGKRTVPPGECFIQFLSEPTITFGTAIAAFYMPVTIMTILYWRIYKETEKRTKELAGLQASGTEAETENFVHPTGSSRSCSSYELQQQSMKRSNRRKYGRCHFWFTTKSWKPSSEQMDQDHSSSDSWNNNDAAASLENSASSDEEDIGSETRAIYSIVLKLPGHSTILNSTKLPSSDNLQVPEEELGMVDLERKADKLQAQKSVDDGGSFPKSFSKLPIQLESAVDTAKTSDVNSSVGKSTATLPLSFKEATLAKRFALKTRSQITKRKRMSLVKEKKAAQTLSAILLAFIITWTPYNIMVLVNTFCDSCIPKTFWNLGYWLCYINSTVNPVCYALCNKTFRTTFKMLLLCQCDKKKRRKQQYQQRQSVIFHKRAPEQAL
Experimental: (§1) Membranes from CHO—K1 cells transfected with human M2 or M3 receptors (Receptor Biology) were used. The summarised experimental procedure for both receptors was the following: membranes (15–20 μg) were incubated with [^3H]-NMS (0.3–0.5 nM) for 60 min at 25° C., in presence or absence of the antagonists. Incubation was carried out in 96 wells polystyrene microplates in a total incubation volume of 0.2 mL of PBS pH 7.4. Non specific binding was determined in parallel assays in presence of atropine (5 μM). Samples were filtered through type GF/C glass fibre, preincubated with PEI 0.3%. Filters were washed 3–4 times with 50 mM Tris-HCl, 0.9% NaCl, pH 7.4 at 4° C., and dried at 50° C. for 45 min. Filter bound radioactivity was quantified by liquid scintillation counting.
(§2) For the calculation of the inhibition constant (Ki), displacement curves were analysed by non-linear regression (GraphPad Prism). Dissociation constant (KD) of [^3H]-NMS for each receptor was obtained through the saturation curves obtained in the same conditions as the experiments carried out with the antagonists.

[3] = target: T2, human M2 receptors (Homo sapiens, UniProt P08172); test: Binding test to cloned human M2 muscarinic receptor ([3H]-NMS displacement, CHO-K1 membranes), reported as M2/M3 ratio; details: value greater than 1 indicates selectivity for the M3 receptor
T2 construct: purchased Receptor Biology; host or cells: CHO-K1 cells transfected with the human receptor (membranes)
T2 sequence (P08172 1-466): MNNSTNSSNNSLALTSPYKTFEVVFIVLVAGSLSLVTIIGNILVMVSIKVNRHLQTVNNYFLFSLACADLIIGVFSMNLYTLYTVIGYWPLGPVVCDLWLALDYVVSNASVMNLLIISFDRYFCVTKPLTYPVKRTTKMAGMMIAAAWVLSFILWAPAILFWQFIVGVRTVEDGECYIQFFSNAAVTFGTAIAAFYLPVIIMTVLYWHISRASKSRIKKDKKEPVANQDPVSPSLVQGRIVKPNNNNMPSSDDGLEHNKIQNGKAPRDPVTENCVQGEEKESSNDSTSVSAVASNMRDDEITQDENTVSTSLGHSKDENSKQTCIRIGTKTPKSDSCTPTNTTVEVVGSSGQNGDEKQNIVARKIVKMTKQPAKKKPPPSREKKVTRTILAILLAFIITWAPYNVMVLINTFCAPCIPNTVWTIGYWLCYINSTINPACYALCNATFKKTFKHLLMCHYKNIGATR
Experimental: as §1, §2

Compound	affinity towards the M2 receptor [1]	Ki [2] [nM]	M2/M3 (ratio between M2 and M3 receptor affinities) [3]
NC(=O)C(c1ccccc1)(c1ccccc1)[C@@H]1CCN(CCc2ccc3c(c2)CCO3)C1 [DARIFENACIN, darifenacin]	without any significant affinity	–	–
O=C(OC1CN2CCC1CC2)N(Cc1ccc(O)cc1)c1ccccc1 (centres unmarked) [Example 47]	–	5.7	33
O=C(OC1CN2CCC1CC2)N(Cc1cccc(OCc2ccccc2)c1)c1cccc(Cl)c1 (centres unmarked) [Example 48]	–	0.43	24
O=C(OC1CN2CCC1CC2)N(Cc1cccc(OC(F)(F)F)c1)c1ccccc1 (centres unmarked) [Example 49]	–	10.1	7
CC(C)Oc1ccc(CN(C(=O)OC2CN3CCC2CC3)c2ccccc2)cc1 (centres unmarked) [Example 50]	–	0.84	26
COc1cc(CN(C(=O)OC2CN3CCC2CC3)c2cccc(Cl)c2)ccc1OCc1ccccc1 (centres unmarked) [Example 51]	–	51.9	3
O=C(OC1CN2CCC1CC2)N(Cc1ccc2c(c1)OCO2)c1ccccc1 (centres unmarked) [Example 52]	–	1.2	25
Cc1cccc(N(Cc2ccc3c(c2)OCCO3)C(=O)OC2CN3CCC2CC3)c1 (centres unmarked) [Example 53]	–	1.25	26
O=C(OC1CN2CCC1CC2)N(CC1CC1)c1ccccc1 (centres unmarked) [Example 54]	–	0.6	32
O=C(OC1CN2CCC1CC2)N(CC1CCC1)c1ccccc1 (centres unmarked) [Example 55]	–	0.35	110
Cc1cccc(N(CC2CCCC2)C(=O)OC2CN3CCC2CC3)c1 (centres unmarked) [Example 56]	–	0.75	37
O=C(OC1CN2CCC1CC2)N(CC1CCCCC1)c1ccccc1F (centres unmarked) [Example 57]	–	0.025	300
Cc1cccc(N(CC2CCC(C)CC2)C(=O)OC2CN3CCC2CC3)c1 (centres unmarked) [Example 58]	–	0.088	93
C=C(C)C1CCC(CN(C(=O)OC2CN3CCC2CC3)c2cccc(C)c2)CC1 (centres unmarked) [Example 59]	–	0.77	90
O=C(OC1CN2CCC1CC2)N(CC1=CCCCC1)c1ccccc1F (centres unmarked) [Example 60]	–	0.02	48
O=C(OC1CN2CCC1CC2)N(CC1CC=CCC1)c1cccc(Cl)c1 (centres unmarked) [Example 61]	–	0.35	74
O=C(OC1CN2CCC1CC2)N(CC1CC2CCC1C2)c1cccc(F)c1 (centres unmarked) [Example 62]	–	0.22	115
O=C(OC1CN2CCC1CC2)N(CC1CC2C=CC1C2)c1ccccc1 (centres unmarked) [Example 63]	–	0.06	64
C[N+]12CCC(CC1)C(OC(=O)N(Cc1ccc(F)cc1)c1ccccc1)C2.[I-] (centres unmarked) [Example 64]	–	3.6	30
Cc1ccccc1N(Cc1ccccc1)C(=O)OC1C[N+]2(C)CCC1CC2.[I-] (centres unmarked) [Example 65]	–	14.3	13
Cc1ccccc1N(Cc1cc(F)c(F)cc1F)C(=O)OC1C[N+]2(C)CCC1CC2.[I-] (centres unmarked) [Example 66]	–	4.7	18
Cc1cccc(N(Cc2ccc(F)cc2)C(=O)OC2C[N+]3(C)CCC2CC3)c1.[I-] (centres unmarked) [Example 67]	–	3.8	19
C[N+]12CCC(CC1)C(OC(=O)N(Cc1ccccc1)c1ccccc1F)C2.[I-] (centres unmarked) [Example 68]	–	9.9	5
C[N+]12CCC(CC1)C(OC(=O)N(CC1CCCCC1)c1ccccc1F)C2.[I-] (centres unmarked) [Example 69]	–	14.1	8
O=C(OC1CN2CCC1CC2)N1CCc2ccccc2[C@@H]1c1ccccc1 (some centres unmarked) [YM-905, reference compound]	without any significant affinity	1.72	24
